Target: T1, Axl (Homo sapiens, UniProt P30530)
T1 construct: endogenous in cells; host or cells: HeLa cells
T1 sequence (P30530 26-894): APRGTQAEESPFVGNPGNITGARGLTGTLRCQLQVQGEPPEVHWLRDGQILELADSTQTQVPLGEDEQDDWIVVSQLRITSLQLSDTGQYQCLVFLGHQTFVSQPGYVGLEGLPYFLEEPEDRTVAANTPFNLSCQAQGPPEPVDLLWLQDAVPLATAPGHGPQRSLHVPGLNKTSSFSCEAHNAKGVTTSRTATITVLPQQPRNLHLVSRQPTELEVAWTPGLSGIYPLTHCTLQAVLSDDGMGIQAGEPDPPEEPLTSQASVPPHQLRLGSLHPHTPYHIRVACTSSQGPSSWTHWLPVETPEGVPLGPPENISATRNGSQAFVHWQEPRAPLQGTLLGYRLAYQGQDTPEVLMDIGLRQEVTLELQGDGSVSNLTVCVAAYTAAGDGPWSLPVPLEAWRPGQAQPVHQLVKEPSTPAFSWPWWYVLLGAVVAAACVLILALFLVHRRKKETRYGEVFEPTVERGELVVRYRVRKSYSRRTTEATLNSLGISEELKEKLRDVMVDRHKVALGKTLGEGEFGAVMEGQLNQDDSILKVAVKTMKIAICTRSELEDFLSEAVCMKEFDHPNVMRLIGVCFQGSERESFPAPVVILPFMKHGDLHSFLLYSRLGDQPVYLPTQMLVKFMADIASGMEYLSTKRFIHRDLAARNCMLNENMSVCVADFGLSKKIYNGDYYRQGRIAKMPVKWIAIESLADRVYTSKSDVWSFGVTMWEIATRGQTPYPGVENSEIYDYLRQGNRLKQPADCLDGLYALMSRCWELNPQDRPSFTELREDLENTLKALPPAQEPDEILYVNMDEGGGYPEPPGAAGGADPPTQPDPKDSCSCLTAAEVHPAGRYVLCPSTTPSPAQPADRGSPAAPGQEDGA
Assay: Phospho-Akt in-cell Western assay (inhibition of Axl activity)
Type: cell-based
How it was run: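 HeLa cells on poly-L-lysine, starved 24 h in 0.5% FCS DMEM with Axl/Fc 500 ng/mL, pre-treated with compound 1 h at 37° C. Axl stimulated 5 min by anti-Axl/anti-mouse antibody cross-linking. Fixed cells probed with anti-phospho-Akt and HRP secondary, chemiluminescence read.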

[1] = inhibition of Axl activity, Table 1
[2] = Table 5, Hela cells, Axl antibody cross-linking stimulation, phospho-Akt chemiluminescence
[3] = Table 2, Hela cells, Axl antibody cross-linking stimulation, phospho-Akt chemiluminescence

| IC50 [1] | Structure (SMILES) | also measured |
| --- | --- | --- |
| > 20 µM | Cc1cc(C(=O)n2nc(Nc3ccc4c(c3)OCCO4)nc2N)ccc1F [compound 242, 5-amino-3-(1,4-benzodioxan-6-yl)amino-1-[(4-fluoro-3-methyl)phenyl]carbonyl-1H-1,2,4-triazole] |  |
| 1 to 10 µM | Nc1ccc(C(=O)n2nc(Nc3ccc4c(c3)OCCO4)nc2N)cc1 [compound 243, 5-amino-1-(4-aminophenyl)carbonyl-3-(1,4-benzodioxan-6-yl)amino-1H-1,2,4-triazole] |  |
| > 20 µM | Nc1nc(Nc2ccc3c(c2)OCCO3)nn1C(=O)c1ccc(C(F)(F)F)cc1 [compound 244, 5-amino-3-(1,4-benzodioxan-6-yl)amino-1-[(4-trifluoromethyl)phenyl]carbonyl-1H-1,2,4-triazole] |  |
| > 20 µM | N#Cc1ccc(C(=O)n2nc(Nc3ccc4c(c3)OCCO4)nc2N)cc1 [compound 245, 5-amino-1-(4-cyanophenyl)carbonyl-3-(1,4-benzodioxan-6-yl)amino-1H-1,2,4-triazole] |  |
| 1 to 10 µM | CC(=O)Nc1ccc(C(=O)n2nc(Nc3ccc4c(c3)OCCO4)nc2N)cc1 [compound 246, 1-[(4-Acetylamino)phenyl]carbonyl-5-amino-3-(1,4-benzodioxan-6-yl)-amino-1H-1,2,4-triazole] |  |
| 1 to 10 µM | CN(C)c1ccc(C(=O)n2nc(Nc3ccc4c(c3)OCCO4)nc2N)cc1 [compound 247, 5-amino-1-[(4-dimethylamino)phenyl]carbonyl-3-(1,4-benzodioxan-6-yl)amino-1H-1,2,4-triazole] |  |
| > 20 µM | CS(=O)(=O)c1ccc(C(=O)n2nc(Nc3ccc4c(c3)OCCO4)nc2N)cc1 [compound 248, 5-amino-3-(1,4-benzodioxan-6-yl)amino-1-[(4-methylsulfonyl)phenyl]carbonyl-1H-1,2,4-triazole] |  |
| > 20 µM | Cc1ccc(C(=O)n2nc(Nc3ccc4c(c3)OCCO4)nc2N)cc1Cl [compound 249, 5-amino-1-[(3-chloro-4-methyl)phenyl]carbonyl-3-(1,4-benzodioxan-6-yl)-amino-1H-1,2,4-triazole] |  |

Further lines, the compound ahead of its results:

| Structure (SMILES) | IC50 [1] | also measured |
| --- | --- | --- |
| Cc1cccc(C(=O)n2nc(Nc3cccc(OCC(=O)OC(C)(C)C)c3)nc2N)c1 [compound 221, 5-amino-1-(3-methylphenyl)carbonyl-3-[(3-tert-butoxycarbonylmethoxy)phenyl]amino-1H-1,2,4-triazole] | 1 to 10 µM |  |
| Cc1cccc(C(=O)n2nc(Nc3ccc4nn(C)cc4c3)nc2N)c1 [compound 222, 5-amino-3-(2-methyl-2H-indazol-5yl)amino-1-(3-methylphenyl)carbonyl-1H-1,2,4-triazole] |  | IC50 [2]: > 20 µM |
| Cc1cccc(C(=O)n2nc(Nc3cccc(OCC(=O)NCCOC4CCCCO4)c3)nc2N)c1 (stereo not drawn) [compound 223] | 1 to 10 µM |  |
| Cc1cccc(C(=O)n2nc(Nc3cccc(OCC(=O)O)c3)nc2N)c1 [compound 224, 5-amino-3-(3-hydroxycarbonylmethoxy)phenylamino-1-(3-methylphenyl)carbonyl-1H-1,2,4-triazole] | > 20 µM |  |
| Cc1cccc(C(=O)n2nc(Nc3cccc(OCC(=O)NCCO)c3)nc2N)c1 [compound 225, 5-amino-3-[3-((2-hydroxyethyl)aminocarbonylmethoxy)phenyl]amino-1-(3-methylphenyl)carbonyl-1H-1,2,4-triazole] | 1 to 10 µM |  |
| Nc1nc(Nc2ccc3c(c2)OCCO3)nn1C(=O)c1ccc(OCCN2CCCCC2)cc1 [compound 226] | 1 to 10 µM |  |
| Cc1cccc(C(=O)n2nc(Nc3ccc4c(cnn4C)c3)nc2N)c1 [compound 227, 5-amino-3-[1-methyl-1H-indazol-5-yl]amino-1-(3-methylphenyl)carbonyl-1H-1,2,4-triazole] |  | IC50 [2]: 1 to 10 µM |
| Nc1nc(Nc2ccc3c(c2)OCCO3)nn1C(=O)c1cccc(OCC(F)(F)F)c1 [compound 228, 5-amino-3-(1,4-benzodioxan-6-yl)amino-1-(3-(2,2,2-trifluoroethoxy)phenyl)carbonyl-1H-1,2,4-triazole] | > 20 µM |  |
| Cc1cccc(C(=O)n2nc(Nc3ccc4occc4c3)nc2N)c1 [compound 229, 5-amino-3-(benzofuran-5-yl)amino-1-(3-methylphenyl)carbonyl-1H-1,2,4-triazole] |  | IC50 [2]: 1 to 10 µM |
| Nc1nc(Nc2ccc3c(c2)OCCO3)nn1C(=O)c1ccc(OCC(F)(F)F)cc1 [compound 230, 5-amino-3-(1,4-benzodioxan-6-yl)amino-1-(4-(2,2,2-trifluoroethoxy)phenyl)carbonyl-1H-1,2,4-triazole] | > 20 µM |  |
| NC(=O)COc1cccc(C(=O)n2nc(Nc3ccc4c(c3)OCCO4)nc2N)c1 [compound 231, 5-amino-1-(3-aminocarbonylmethoxy)phenylcarbonyl-3-(1,4-benzodioxan-6-yl)amino-1H-1,2,4-triazole] | > 20 µM |  |
| CC(C)c1ccc(C(=O)n2nc(Nc3ccc4c(c3)OCCO4)nc2N)cc1 [compound 232, 5-amino-3-(1,4-benzodioxan-6-yl)amino-1-(4-iso-propylphenyl)carbonyl-1H-1,2,4-triazole] | 1 to 10 µM |  |
| CC(C)c1ccc(C(=O)n2nc(N)nc2Nc2ccc3c(c2)OCCO3)cc1 [compound 233, 3-amino-5-(1,4-benzodioxan-6-yl)amino-1-(4-iso-propylphenyl)carbonyl-1H-1,2,4-triazole] |  | IC50 [3]: > 20 µM |
| Cc1ccc(C(=O)n2nc(Nc3ccc4c(c3)OCCO4)nc2N)cc1C [compound 234, 5-amino-1-(3,4-dimethylphenyl)carbonyl-3-(1,4-benzodioxan-6-yl)amino-1H-1,2,4-triazole] | 1 to 10 µM |  |
| Cc1cccc(C(=O)n2nc(Nc3cccc(OCS(C)(=O)=O)c3)nc2N)c1 [compound 235, 5-amino-1-(3-methylphenyl)carbonyl-3-[3-(methylsulfonylmethoxy)phenyl]amino-1H-1,2,4-triazole] | 1 to 10 µM |  |
| Cc1ccc(C(=O)n2nc(N)nc2Nc2ccc3c(c2)OCCO3)cc1C [compound 236, 3-amino-1-(3,4-dimethylphenyl)carbonyl-5-(1,4-benzodioxan-6-yl)amino-1H-1,2,4-triazole] |  | IC50 [3]: > 20 µM |
| CSc1ccc(C(=O)n2nc(Nc3ccc4c(c3)OCCO4)nc2N)cc1 [compound 237, 5-amino-3-(1,4-benzodioxan-6-yl)amino-1-(4-thiomethylphenyl)carbonyl-1H-1,2,4-triazole] | 1 to 10 µM |  |
| CSc1ccc(C(=O)n2nc(N)nc2Nc2ccc3c(c2)OCCO3)cc1 [compound 238, 3-amino-5-(1,4-benzodioxan-6-yl)amino-1-(4-thiomethylphenyl)carbonyl-1H-1,2,4-triazole] |  | IC50 [3]: > 20 µM |
| Cc1cc(C)cc(C(=O)n2nc(Nc3ccc4c(c3)OCCO4)nc2N)c1 [compound 239, 5-amino-3-(1,4-benzodioxan-6-yl)amino-1-(3,5-dimethylphenyl)carbonyl-1H-1,2,4-triazole] |  | IC50 (inhibition of Axl activity, phospho-Akt in-cell Western assay, Table 1): 1 to 10 µM |
| Nc1nc(Nc2ccc3c(c2)OCCO3)nn1C(=O)c1ccc([N+](=O)[O-])cc1 [compound 240, 5-amino-3-(1,4-benzodioxan-6-yl)amino-1-(4-nitrophenyl)carbonyl-1H-1,2,4-triazole] | > 20 µM |  |
| Cc1cc(C(=O)n2nc(N)nc2Nc2ccc3c(c2)OCCO3)ccc1F [compound 241, 3-amino-5-(1,4-benzodioxan-6-yl)amino-1-[(4-fluoro-3-methyl)phenyl]carbonyl-1H-1,2,4-triazole] |  | IC50 [3]: > 20 µM |
| Cc1cccc(C(=O)n2nc(Nc3ccc4ncsc4c3)nc2N)c1 [compound 250, 5-amino-3-(benzothiazol-6-yl)amino-1-(3-methylphenyl)carbonyl-1H-1,2,4-triazole] |  | IC50 [2]: 1 to 10 µM |

Source: patent US8389557B2, “Triazole derivatives useful as Axl inhibitors” (Rigel Pharmaceuticals, Inc., priority 2005, dated 2013)
